ChEMBL document CHEMBL5058564, “EUbOPEN Chemogenomics Library 2 (Incucyte)” (2022)

What was measured:
Format in all cases: toxicity, cell-based
HEK-293T = assay: Incucyte cell viability with HEK293T; settings: human, 10 µM, compound concentration 10 uM
Fibroblast = assay: Incucyte cell viability with human fibroblast; settings: 10 µM, compound concentration 10 uM
U2OS = assay: Incucyte cell viability with U2OS; settings: human, 10 µM, compound concentration 10 uM
[1] = 0 h, replicate number 1, timepoint 0 hours
[2] = 0 h, replicate number 2, timepoint 0 hours
[3] = 6 h, replicate number 1, timepoint 6 hours
[4] = 12 h, replicate number 1, timepoint 12 hours
[5] = 12 h, replicate number 2, timepoint 12 hours
[6] = 18 h, replicate number 1, timepoint 18 hours
[7] = 18 h, replicate number 2, timepoint 18 hours
[8] = 24 h, replicate number 1, timepoint 24 hours
[9] = 24 h, replicate number 2, timepoint 24 hours
[10] = 6 h, replicate number 2, timepoint 6 hours
Further: unitless GR value; below 1 slowed growth and below 0 cell loss.

SMILES	Growth Rate (HEK-293T; [1])	Growth Rate (HEK-293T; [2])	Growth Rate (HEK-293T; [3])	Growth Rate (HEK-293T; [4])	Growth Rate (HEK-293T; [5])	Growth Rate (HEK-293T; [6])	Growth Rate (HEK-293T; [7])	Growth Rate (HEK-293T; [8])	Growth Rate (Fibroblast; [1])	Growth Rate (Fibroblast; [2])	Growth Rate (U2OS; [2])	Growth Rate (U2OS; [3])	Growth Rate (U2OS; [4])	Growth Rate (U2OS; [6])	Growth Rate (Fibroblast; [8])	Growth Rate (U2OS; [1])	Growth Rate (Fibroblast; [3])	Growth Rate (Fibroblast; [4])	Growth Rate (Fibroblast; [6])	Growth Rate (U2OS; [7])	other results
COc1cc2nc(N3CCN(C(=O)C4CCCO4)CC3)nc(N)c2cc1OC.Cl.O.O (stereo unspecified) [TERAZOSIN HYDROCHLORIDE]	0.72	0.29	0.91	0.69	0.83	0.78	0.79	0.87	0.68	0.43	0.74	0.56	0.73	0.88	–	–	–	–	–	–	Growth Rate (HEK-293T; [9]): 0.79; Growth Rate (Fibroblast; [10]): 0.32; Growth Rate (Fibroblast; [5]): 0.84; Growth Rate (Fibroblast; [7]): 0.8; Growth Rate (Fibroblast; [9]): 0.57; Growth Rate (U2OS; [10]): 0.76; Growth Rate (U2OS; [8]): 0.99
Cc1ccc2c(c1CCC(=O)O)CC[C@@H](NS(=O)(=O)c1ccc(Cl)cc1)C2 [TERUTROBAN]	0.06	0.31	0.87	–	–	0.99	0.97	0.94	-0.56	0	-1	–	–	–	0.83	-0.59	–	–	–	–	–
Cc1c(Cc2ccc3ccccc3n2)c2cc(F)ccc2n1CC(=O)O [TIMAPIPRANT]	–	0.4	–	–	–	0.82	–	–	0.53	0.31	-1	0.37	0.81	0.63	0.87	–	0.6	0.51	0.8	0.96	–
C[N+]1(C)[C@@H]2C[C@@H](OC(=O)C(O)(c3cccs3)c3cccs3)C[C@H]1[C@@H]1O[C@@H]12.O.[Br-] [TIOTROPIUM BROMIDE]	0.54	-0.14	0.86	0.87	–	0.7	0.99	0.79	–	-0.05	0.9	0.61	0.64	0.68	0.95	0.04	-0.47	0.71	1	–	Growth Rate (HEK-293T; [9]): 0.91; Growth Rate (Fibroblast; [5]): 0.99; Growth Rate (Fibroblast; [7]): 0.83; Growth Rate (Fibroblast; [9]): 0.7; Growth Rate (U2OS; [10]): 0.93; Growth Rate (U2OS; [8]): 0.86
Cl.Clc1ccc2nsnc2c1NC1=NCCN1 [TIZANIDINE HYDROCHLORIDE]	–	–	–	1	0.61	–	–	–	–	0.25	-1	0.31	–	–	0.25	0.36	-0.29	0.72	0.25	–	Growth Rate (HEK-293T; [10]): 0.88
Cc1ccc(O)c([C@H](CCN(C(C)C)C(C)C)c2ccccc2)c1.O=C(O)C(O)C(O)C(=O)O [TOLTERODINE TARTRATE]	–	0.52	0.89	0.79	–	–	–	–	–	0.83	0.94	0.98	–	–	–	-0.73	0.59	0.92	–	–	–
Nc1cnc(N2CCc3cc(S(=O)(=O)Nc4c(F)cc(Cl)cc4F)cc(N4CCCC4=O)c32)nc1 [TP-020n]	0.54	0.76	0.61	0.37	0.71	0.61	0.9	0.74	0.01	-0.22	–	0.53	0.72	0.65	0.92	-0.04	–	–	–	–	Growth Rate (HEK-293T; [9]): 0.77; Growth Rate (U2OS; [8]): 0.66
Cc1ccc(/C(=C\CN2CCCC2)c2ccccn2)cc1 [TRIPROLIDINE]	–	–	–	–	–	–	–	–	0.54	0.74	–	-0.54	0.38	0.76	0.88	–	0.96	–	0.98	0.96	Growth Rate (HEK-293T; [10]): 0.8; Growth Rate (U2OS; [10]): 0.77; Growth Rate (U2OS; [5]): 0.88; Growth Rate (U2OS; [8]): 0.83; Growth Rate (U2OS; [9]): 0.94
CCN(Cc1ccncc1)C(=O)C(CO)c1ccccc1 (stereo unspecified) [TROPICAMIDE]	0.72	–	0.92	0.97	0.95	0.93	0.83	0.88	0.46	-0.24	0.44	0.58	–	–	–	0.73	–	–	–	0.92	Growth Rate (HEK-293T; [9]): 1; Growth Rate (U2OS; [5]): 0.99
CCCC(CCC)C(=O)O [VALPROIC ACID]	0.84	0.39	0.68	–	–	0.94	–	0.87	–	0.88	-1	–	0.96	0.9	–	0.41	0.27	0.85	–	0.81	Growth Rate (U2OS; [10]): 0.75
CC(C)(C)c1ccc(S(=O)(=O)Nc2ccc(Cl)cc2C(=O)c2cc[n+]([O-])cc2)cc1 [VERCIRNON]	–	–	0.87	–	0.73	–	0.91	–	0.29	0.25	-1	0.94	–	0.78	0.69	–	–	–	1	–	Growth Rate (HEK-293T; [10]): 0.35
COC[C@@H](c1ccc(C(F)(F)F)cc1)N1CCN(C2(C)CCN(C(=O)c3c(C)ncnc3C)CC2)C[C@@H]1C.O=C(O)/C=C\C(=O)O [VICRIVIROC MALEATE]	0.38	-1	–	0.66	–	0.49	–	0.39	–	–	-0.31	0.58	0.57	0.7	0.67	-0.67	-0.4	0.17	0.48	0.98	Growth Rate (Fibroblast; [10]): 0.52; Growth Rate (Fibroblast; [5]): 0.68; Growth Rate (Fibroblast; [7]): 0.79; Growth Rate (Fibroblast; [9]): 0.83; Growth Rate (U2OS; [5]): 0.98; Growth Rate (U2OS; [8]): 0.8; Growth Rate (U2OS; [9]): 0.97
Cc1cc(Cn2nnc3c(-c4ccco4)nc(N)nc32)ccc1N [VIPADENANT]	0.37	0.5	–	–	0.95	–	–	–	0.03	0.35	-1	–	–	0.79	0.17	–	0.45	0.08	0.23	–	Growth Rate (HEK-293T; [10]): 0.84; Growth Rate (Fibroblast; [7]): 0.81
CS(=O)(=O)c1ccc(C(=O)Nc2ccc(Cl)c(-c3ccccn3)c2)c(Cl)c1 [VISMODEGIB]	1	0.86	0.99	0.8	0.84	0.81	0.92	0.83	–	–	-1	0.94	–	–	0.29	–	0.27	0.7	0.67	0.84	Growth Rate (HEK-293T; [10]): 0.75; Growth Rate (Fibroblast; [10]): 0.96; Growth Rate (Fibroblast; [5]): 0.84; Growth Rate (Fibroblast; [7]): 0.59; Growth Rate (Fibroblast; [9]): 0.73; Growth Rate (U2OS; [10]): 0.8; Growth Rate (U2OS; [5]): 0.78; Growth Rate (U2OS; [9]): 0.86
CCOC(=O)N[C@@H]1CC[C@@H]2[C@@H](C1)C[C@H]1C(=O)O[C@H](C)[C@H]1[C@H]2/C=C/c1ccc(-c2cccc(F)c2)cn1 [VORAPAXAR]	–	–	0.72	0.42	0.85	0.48	0.87	0.45	–	–	–	–	–	–	0.18	-0.64	0.13	-0.08	-0.15	0.88	Growth Rate (HEK-293T; [9]): 0.95; Growth Rate (Fibroblast; [10]): -0.65; Growth Rate (Fibroblast; [5]): -0.18; Growth Rate (Fibroblast; [7]): -0.11; Growth Rate (Fibroblast; [9]): 0.15; Growth Rate (U2OS; [5]): 0.96; Growth Rate (U2OS; [9]): 0.9
